Data: patent US20240150377A1, “MODULATORS OF CYSTIC FIBROSIS TRANSMEMBRANE CONDUCTANCE REGULATOR” (VERTEX PHARMACEUTICALS INCORPORATED, priority 2020, published 2024)
Like-named read-outs stand apart in the source and are kept apart here. One block for each compound: values may come before it.

Target: T1, CFTR (Homo sapiens, UniProt P13569, DEL508-508)
T1 construct: endogenous in cells; host or cells: primary human bronchial epithelial cells from CF subjects (F508del/MF-HBE), differentiated at air-liquid interface
Assay: HBE assay: Ussing chamber assay of CFTR-mediated short-circuit currents
Format: cell-based
Settings: for EC50: read-out: HBE EC50
How it was run: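 CFTR-mediated Isc (μA/cm²) equals the peak response to apical 20 μM forskolin minus the residual after a 20 μM each BPO/GlyH-101/CFTR inhibitor 172 cocktail, recorded in Ussing chambers at Vhold 0 mV, 37 °C, pH 7.4, with 30 μM apical amiloride. Cells were F508del/MF HBE cultures preincubated 18-24 h with corrector (concentration range or 10 μM) plus 1 μM ivacaftor in 20% human serum.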

[1] = Table 10, read-out: HBE Max activity (%)
[2] = Table 13, read-out: HBE Activity at 10 μM (%)
[3] = Table 13, read-out: HBE Max Activity (%)
[4] = Table 12, read-out: HBE Activity at 10 μM (%)
[5] = Table 12, read-out: HBE Max Activity (%)

T1 sequence (P13569 with tags, fused parts or gaps DEL508-508): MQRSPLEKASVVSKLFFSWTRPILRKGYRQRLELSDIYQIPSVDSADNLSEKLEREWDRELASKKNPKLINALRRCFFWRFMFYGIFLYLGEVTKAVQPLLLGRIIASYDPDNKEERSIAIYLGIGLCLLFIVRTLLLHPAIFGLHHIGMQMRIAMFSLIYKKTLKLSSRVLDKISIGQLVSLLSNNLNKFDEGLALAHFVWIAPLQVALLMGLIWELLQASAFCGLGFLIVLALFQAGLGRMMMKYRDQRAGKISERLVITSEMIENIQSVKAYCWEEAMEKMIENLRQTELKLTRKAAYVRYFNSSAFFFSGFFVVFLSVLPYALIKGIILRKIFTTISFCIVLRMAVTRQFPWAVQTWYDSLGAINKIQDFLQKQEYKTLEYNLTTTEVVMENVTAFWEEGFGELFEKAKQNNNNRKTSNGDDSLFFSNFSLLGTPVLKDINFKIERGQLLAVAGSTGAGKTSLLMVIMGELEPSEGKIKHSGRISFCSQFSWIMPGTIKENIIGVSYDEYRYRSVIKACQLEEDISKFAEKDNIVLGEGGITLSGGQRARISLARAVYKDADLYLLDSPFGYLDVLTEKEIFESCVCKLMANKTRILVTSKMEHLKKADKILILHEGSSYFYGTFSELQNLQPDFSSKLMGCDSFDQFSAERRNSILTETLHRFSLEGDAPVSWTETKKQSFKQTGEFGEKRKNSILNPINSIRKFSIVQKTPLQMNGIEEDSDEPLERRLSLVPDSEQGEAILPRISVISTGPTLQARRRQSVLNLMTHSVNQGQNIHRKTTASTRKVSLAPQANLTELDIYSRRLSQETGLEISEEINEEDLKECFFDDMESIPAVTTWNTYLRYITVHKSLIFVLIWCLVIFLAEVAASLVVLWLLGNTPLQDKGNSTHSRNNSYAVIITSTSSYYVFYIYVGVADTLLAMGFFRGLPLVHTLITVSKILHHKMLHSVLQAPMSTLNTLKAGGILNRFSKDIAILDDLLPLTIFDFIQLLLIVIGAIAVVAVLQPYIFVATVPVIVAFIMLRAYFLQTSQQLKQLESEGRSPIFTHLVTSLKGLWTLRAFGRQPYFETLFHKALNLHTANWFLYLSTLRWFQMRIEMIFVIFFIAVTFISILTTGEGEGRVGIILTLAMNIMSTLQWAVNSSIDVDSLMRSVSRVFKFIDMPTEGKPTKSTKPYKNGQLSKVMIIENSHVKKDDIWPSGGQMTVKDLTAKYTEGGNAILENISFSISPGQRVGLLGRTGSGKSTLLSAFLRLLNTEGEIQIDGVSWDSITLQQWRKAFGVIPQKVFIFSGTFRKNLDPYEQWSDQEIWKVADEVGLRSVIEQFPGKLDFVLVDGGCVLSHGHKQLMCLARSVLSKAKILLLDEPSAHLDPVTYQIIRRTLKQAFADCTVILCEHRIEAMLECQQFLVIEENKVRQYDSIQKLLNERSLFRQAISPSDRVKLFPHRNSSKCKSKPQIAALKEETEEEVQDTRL

SMILES: Cc1cccc(C)c1-c1cc2nc(n1)NS(=O)(=O)c1cccc(c1)C(=O)N(CC1CCC(NCC(=O)O)CC1)[C@H](CC(C)(C)C)CO2 (some centres unmarked) [Compound 911]
EC50 (Table 10): 3000 to 30000 nM
Emax [1]: 30 to 60%

SMILES: Cc1cccc(C)c1-c1cc2nc(n1)NS(=O)(=O)c1cccc(c1)C(=O)N(CC1CCC(N3C[C@@H](C)O[C@@H](C)C3)CC1)[C@H](CC(C)(C)C)CO2 (some centres unmarked) [Compound 913]
EC50 (Table 10): < 1000 nM
Emax [1]: > 60%

SMILES: Cc1cccc(C)c1-c1cc2nc(n1)NS(=O)(=O)c1cccc(c1)C(=O)N(CC1CCC(N3C[C@@H](C)O[C@@H](C)C3)CC1)[C@H](CC(C)(C)C)CO2 (some centres unmarked) [Compound 914]
EC50 (Table 10): < 1000 nM

SMILES: Cc1cccc(C)c1-c1cc2nc(n1)NS(=O)(=O)c1cccc(c1)C(=O)N(Cc1cccc(Br)n1)[C@H](CC(C)(C)C)CO2 [Compound 992]
activation at 10 µM [2]: > 600%

SMILES: Cc1cccc(C)c1-c1cc2nc(n1)NS(=O)(=O)c1cccc(c1)C(=O)N(Cc1ccc(Br)cn1)[C@H](CC(C)(C)C)CO2 [Compound 993]
activation at 10 µM [2]: > 600%

SMILES: Cc1cccc(C)c1-c1cc2nc(n1)NS(=O)(=O)c1cccc(c1)C(=O)N(Cc1cc(N(C)CC(C)(C)C)ccn1)[C@H](CC(C)(C)C)CO2 [Compound 994]
activation at 10 µM [2]: > 600%

SMILES: Cc1cccc(C)c1-c1cc2nc(n1)NS(=O)(=O)c1cccc(c1)C(=O)N(Cc1cc(NC(C)C)ccn1)[C@H](CC(C)(C)C)CO2 [Compound 995]
activation at 10 µM [2]: > 600%

SMILES: Cc1cccc(C)c1-c1cc2nc(n1)NS(=O)(=O)c1cccc(c1)C(=O)N(CC1(N(C)C)CC3(CCC3)C1)[C@H](CC(C)(C)C)CO2 [Compound 997]
activation at 10 µM [2]: > 600%

SMILES: Cc1cccc(C)c1-c1cc2nc(n1)NS(=O)(=O)c1cccc(c1)C(=O)N(CC1CC3(C1)CC(N(C)C)C3)[C@H](CC(C)(C)C)CO2 (some centres unmarked) [Compound 1000]
activation at 10 µM [2]: > 600%

SMILES: COC(=O)NC1CC2(CC(CN3C(=O)c4cccc(c4)S(=O)(=O)Nc4nc(cc(-c5c(C)cccc5C)n4)OC[C@H]3CC(C)(C)C)C2)C1 (some centres unmarked) [Compound 1001]
activation at 10 µM [2]: > 600%

SMILES: Cc1cccc(C)c1-c1cc2nc(n1)NS(=O)(=O)c1cccc(c1)C(=O)N(CC1CC3(C1)CC(NC(=O)OC1CC1)C3)[C@H](CC(C)(C)C)CO2 (some centres unmarked) [Compound 1002]
activation at 10 µM [2]: > 600%

SMILES: Cc1cccc(C)c1-c1cc2nc(n1)NS(=O)(=O)c1cccc(c1)C(=O)N(CC1CC3(C1)CC(NC(=O)OC(C)(C)C)C3)[C@H](CC(C)C)CO2 (some centres unmarked) [Compound 1004]
activation at 10 µM [4]: > 600%

SMILES: Cc1cccc(C)c1-c1cc2nc(n1)NS(=O)(=O)c1cccc(c1)C(=O)N(C[C@H]1C[C@@H](NC(=O)OC(C)C)C1)[C@H](CC(C)(C)C)CO2 [Compound 1006]
activation at 10 µM [4]: > 600%

SMILES: Cc1cccc(C)c1-c1cc2nc(n1)NS(=O)(=O)c1cccc(c1)C(=O)N(CC1CC(C)(C)C1)[C@H](CC(C)(C)C)CO2 [Compound 1007]
activation at 10 µM [4]: > 600%

SMILES: Cc1cccc(C)c1-c1cc2nc(n1)NS(=O)(=O)c1cccc(c1)C(=O)N(Cc1ncc(N(C)C)c(C)n1)[C@H](CC(C)(C)C)CO2 [Compound 1008]
activation at 10 µM [4]: > 600%

SMILES: Cc1cc(C)nc(CN2C(=O)c3cccc(c3)S(=O)(=O)Nc3nc(cc(-c4c(C)cccc4C)n3)OC[C@H]2CC(C)(C)C)n1 [Compound 1009]
EC50 (Table 12): < 1000 nM
Emax [5]: > 60%

Continued, values first:

activation at 10 µM (Table 10, read-out: HBE activity at 10 (μM) (%)): < 300%
SMILES: Cc1cccc(C)c1-c1cc2nc(n1)NS(=O)(=O)c1cccc(c1)C(=O)N(CC1CCC(NCC(=O)O)CC1)[C@H](CC(C)(C)C)CO2 (some centres unmarked) [Compound 912]

EC50 (Table 13): < 1000 nM
Emax [3]: > 60%
SMILES: Cc1cccc(C)c1-c1cc2nc(n1)NS(=O)(=O)c1cccc(c1)C(=O)N(Cc1ccc(NC(C)C)cn1)[C@H](CC(C)(C)C)CO2 [Compound 996]

activation at 10 µM [2]: > 600%
SMILES: Cc1cccc(C)c1-c1cc2nc(n1)NS(=O)(=O)c1cccc(c1)C(=O)N(Cc1cc3ccoc3cn1)[C@H](CC(C)(C)C)CO2 [Compound 998]

activation at 10 µM [2]: > 600%
SMILES: Cc1cccc(C)c1-c1cc2nc(n1)NS(=O)(=O)c1cccc(c1)C(=O)N(CC1(NC(=O)OC(C)(C)C)CC3(CCC3)C1)[C@H](CC(C)(C)C)CO2 [Compound 999]

activation at 10 µM [2]: > 600%
SMILES: Cc1cccc(C)c1-c1cc2nc(n1)NS(=O)(=O)c1cccc(c1)C(=O)N(CC1CC3(C1)CC(NC(=O)OC(C)C)C3)[C@H](CC(C)(C)C)CO2 (some centres unmarked) [Compound 1003]

EC50 (Table 12): < 1000 nM
Emax [5]: > 60%
SMILES: Cc1cccc(C)c1-c1cc2nc(n1)NS(=O)(=O)c1cccc(c1)C(=O)N(C[C@H]1C[C@@H](NC(=O)OC(C)C)C1)[C@H](CC(C)(C)C)CO2 [Compound 1005]

EC50 (Table 13): < 1000 nM
Emax [3]: > 60%
SMILES: Cc1cccc(C)c1-c1cc2nc(n1)NS(=O)(=O)c1cccc(c1)C(=O)N(Cc1ncc(N3CC4(CCOC4)C3)cn1)[C@H](CC(C)(C)C)CO2 [Compound 1054]
